{"source": "patent US8703786B2", "about": "“Etravirine formulations and uses thereof” (priority 2011, dated 2014)", "key": {"plasma proteins": {"system": "plasma proteins", "conditions": "cited from earlier work"}, "[1]": {"assay": "Solubility of etravirine in various media by phase solubility analysis (HPLC-UV)", "assay_type": "physicochemical", "conditions": "for solubility at 72 h: thermodynamic from solid", "method": "The solubility of etravirine was determined in water, various oils and some organic solvents by phase solubility analysis. Excess drug was added into 20 ml screw-capped scintillation vials containing 5 ml of the tested solvents. The vials were rotated end-over-end at a constant speed on shaker (EBERBACH Corporation, Ann Arbor, Mich.) at room temperature for 3 days (72 hours). The samples were then subjected to centrifugation on a laboratory centrifuge at 13,000 rpm for 15 minutes. Aliquot of the supernatant was diluted with DMSO to the proper concentration before they were analyzed by high-performance liquid chromatography (HPLC) using UV detector.\nThe HPLC system involved Waters 600 pump, 2487 UV detector and 717 plus auto sampler (Waters Corporation, Milford, Mass.). Separations were done on a 4.6×150 mm, 3.5 μm XTerra MS-C18 column (Waters Corporation, Milford, Mass.). The flow rate was set at 1 ml/min and the wavelength at 304 nm. Chromatographic data acquisition, peak integration and quantification were performed using the Empower software package by Waters Corporation. Mobile phase solution A consisted of 20 mM potassium dihydrogen phosphate aqueous solution and solution B consisted of acetonitrile (40% solution A+60% solution B). pH was adjusted to 3.2 using phosphoric acid. Solvents were regularly prepared prior to each series of analysis."}, "[2]": {"conditions": "cited from earlier work; for Biopharmaceutics Classification System class: low water solubility and permeability"}, "[3]": {"assay": "Pharmacokinetic / oral bioavailability study in rats (LC-MS/MS of plasma)", "assay_type": "in vivo", "conditions": "male, Sprague-Dawley, rat", "protocol": "Male Sprague-Dawley rats (250-350 g, Harlan Laboratory Inc., Indianapolis, Ind.) were housed in stainless steel cages and had free access to food and water. They were acclimated to the animal care facility for at least 7 days before the start of the study. To facilitate the withdrawal of timed, multiple blood samples from each animal, the right jugular vein of each animal was cannulated one day prior to drug administration. The cannulas were flushed daily with 0.5 mL sterile heparinized saline (100 units/ml). Under ketamine:acetopromazine:xylazine (50:3.3:3.3 mg/kg ip) anesthesia, silicone elastomer tubing (0.02×0.037 in) was inserted into the jugular vein, secured with a silk suture, and exteriorized in the dorsal infrascapular area. The surgical incision was prophylactically treated with nitrofurazone wound powder and closed with surgical staples.\nAnimals were allowed free access to food and water at all times. The jugular veins of the rats were cannulated under anesthesia the day before the study. All in vivo studies were initiated between 8:00 am and 9:00 am to eliminate possible circadian variation. The animals were fasted overnight with water allowed ad libitum before oral dosing.\nThe in vivo study consists of four rat groups. […] The second group is a reference group (n=5) which was given an oral 200 mg/kg administration of a suspension of the commercial Intelence® tablets in 1% Tween 80. […] Oral administration was performed using an animal feeding needle (18 in.×3 in. W; 2¼ mm Ball). Multiple blood samples (0.25 mL) were collected (from the jugular vein cannula) immediately before dosing and at 0.5, 1, 1.5, 2, 3, 4, 5, 6, 8, 10 and 24 hours after dosing. An aliquot of each plasma sample was stored at −70° C. pending LC-MS/MS assay.\nEtravirine concentrations in rat plasma was analyzed using a sensitive and accurate liquid chromatographic-tandem mass spectrometry (LC-MS/MS) method developed in the laboratory (10). […] The column effluent was monitored using a 3200 QTRAP® mass spectrum, which is a hybrid triple quadruple linear ion trap equipped with a Turbolonspray ion source. […]"}, "p-gp": {"target": "p-gp (Homo sapiens, UniProt P08183)", "sequence (P08183 whole entry)": "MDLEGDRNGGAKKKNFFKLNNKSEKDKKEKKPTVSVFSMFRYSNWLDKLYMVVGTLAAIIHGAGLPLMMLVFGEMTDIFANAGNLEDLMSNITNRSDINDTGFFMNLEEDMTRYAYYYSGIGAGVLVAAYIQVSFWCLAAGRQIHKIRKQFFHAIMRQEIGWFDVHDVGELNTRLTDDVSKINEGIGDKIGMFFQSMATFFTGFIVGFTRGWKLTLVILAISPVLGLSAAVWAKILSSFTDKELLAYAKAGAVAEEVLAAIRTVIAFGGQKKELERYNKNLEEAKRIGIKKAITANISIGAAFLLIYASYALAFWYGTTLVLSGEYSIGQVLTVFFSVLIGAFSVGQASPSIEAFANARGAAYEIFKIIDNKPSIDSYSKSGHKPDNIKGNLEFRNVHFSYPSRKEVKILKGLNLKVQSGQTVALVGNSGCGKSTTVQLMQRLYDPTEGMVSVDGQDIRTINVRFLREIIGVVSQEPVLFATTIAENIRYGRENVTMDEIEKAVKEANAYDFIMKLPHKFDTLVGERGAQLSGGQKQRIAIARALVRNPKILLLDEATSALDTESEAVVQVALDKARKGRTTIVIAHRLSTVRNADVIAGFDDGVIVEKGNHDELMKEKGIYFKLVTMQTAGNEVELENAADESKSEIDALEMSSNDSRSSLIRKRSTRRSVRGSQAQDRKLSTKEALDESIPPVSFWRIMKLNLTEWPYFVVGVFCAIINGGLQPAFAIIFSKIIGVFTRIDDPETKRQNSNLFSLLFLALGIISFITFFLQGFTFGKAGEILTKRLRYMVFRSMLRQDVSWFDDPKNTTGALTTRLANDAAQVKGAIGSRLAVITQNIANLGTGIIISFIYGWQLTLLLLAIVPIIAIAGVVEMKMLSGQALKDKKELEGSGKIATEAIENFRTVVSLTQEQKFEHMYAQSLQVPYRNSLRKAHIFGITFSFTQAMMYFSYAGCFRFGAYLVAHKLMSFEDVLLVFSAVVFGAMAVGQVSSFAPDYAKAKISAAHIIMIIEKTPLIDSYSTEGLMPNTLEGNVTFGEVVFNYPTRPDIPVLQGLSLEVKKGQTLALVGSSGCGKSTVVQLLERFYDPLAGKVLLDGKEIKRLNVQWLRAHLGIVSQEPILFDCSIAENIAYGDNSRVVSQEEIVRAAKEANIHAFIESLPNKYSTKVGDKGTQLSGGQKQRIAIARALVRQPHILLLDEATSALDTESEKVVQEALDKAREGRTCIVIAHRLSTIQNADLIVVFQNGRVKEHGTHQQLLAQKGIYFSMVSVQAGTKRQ", "conditions": "in vitro; read-out: apparent IC50 (inhibitor of p-gp); cited from earlier work"}, "[4]": {"conditions": "cited from earlier work"}}, "note": "Where two headings read alike, the source gives them in different places.", "data": [{"smiles": "Cc1cc(C#N)cc(C)c1Oc1nc(Nc2ccc(C#N)cc2)nc(N)c1Br", "note": "[Etravirine, 4-[[6-amino-5-bromo-2-[(4-cyanophenyl)amino]-4-pyrimidinyl]oxy]-3,5-dimethyl benzonitrile]", "values": [{"measurement": "binding to plasma proteins", "setting": "plasma proteins", "value": "highly bound"}, {"measurement": "solubility at 72 h", "setting": "[1]; distilled water, water, read-out: intrinsic solubility", "value": 3.9, "unit": "µg/mL"}, {"measurement": "solubility (descriptive)", "setting": "[1]; in DMSO and 1-methyl-2-pyrrolidinone", "value": "freely soluble"}, {"measurement": "solubility (descriptive)", "setting": "[1]; in PEG 400, Tween 80, Cremophore EL, Tween 20, and Labrasol", "value": "soluble"}, {"measurement": "solubility (descriptive)", "setting": "[1]; in corn oil, soybean oil and olive oil", "value": "very slightly soluble"}, {"measurement": "solubility (descriptive)", "setting": "[1]; in peanut oil, Caproyl 90", "value": "slightly soluble"}, {"measurement": "solubility (descriptive)", "setting": "[1]; in water", "value": "practically insoluble"}, {"measurement": "solubility at 72 h", "setting": "[1]; oil or lipid, Caproyl 90, room temperature, read-out: Drug Solubility", "value": "5420 ± 60", "unit": "µg/mL"}, {"measurement": "solubility at 72 h", "setting": "[1]; oil or lipid, Coriander Oil, room temperature, read-out: Drug Solubility", "value": 740, "unit": "µg/mL"}, {"measurement": "solubility at 72 h", "setting": "[1]; oil or lipid, Corn Oil, room temperature, read-out: Drug Solubility", "value": 420, "unit": "µg/mL"}, {"measurement": "solubility at 72 h", "setting": "[1]; oil or lipid, Labrafac CC, room temperature, read-out: Drug Solubility", "value": "1040 ± 10", "unit": "µg/mL"}, {"measurement": "solubility at 72 h", "setting": "[1]; oil or lipid, Lavender Oil, room temperature, read-out: Drug Solubility", "value": 1230, "unit": "µg/mL"}, {"measurement": "solubility at 72 h", "setting": "[1]; oil or lipid, Linseed Oil, room temperature, read-out: Drug Solubility", "value": 790, "unit": "µg/mL"}, {"measurement": "solubility at 72 h", "setting": "[1]; oil or lipid, Mineral Oil, room temperature, read-out: Drug Solubility", "value": 4, "unit": "µg/mL"}, {"measurement": "solubility at 72 h", "setting": "[1]; oil or lipid, Olive Oil, room temperature, read-out: Drug Solubility", "value": 220, "unit": "µg/mL"}, {"measurement": "solubility at 72 h", "setting": "[1]; oil or lipid, Paraffin Oil, room temperature, read-out: Drug Solubility", "value": 9, "unit": "µg/mL"}, {"measurement": "solubility at 72 h", "setting": "[1]; oil or lipid, Peanut Oil, room temperature, read-out: Drug Solubility", "value": 2190, "unit": "µg/mL"}, {"measurement": "solubility at 72 h", "setting": "[1]; oil or lipid, Pluro oleique CC 497, room temperature, read-out: Drug Solubility", "value": "1040 ± 20", "unit": "µg/mL"}, {"measurement": "solubility at 72 h", "setting": "[1]; oil or lipid, Soybean Oil, room temperature, read-out: Drug Solubility", "value": 310, "unit": "µg/mL"}, {"measurement": "solubility at 72 h", "setting": "[1]; organic solvent or mixture, 1-methyl-2-pyrrolidinone, room temperature, read-out: Drug Solubility", "value": 458000, "unit": "µg/mL"}, {"measurement": "solubility at 72 h", "setting": "[1]; organic solvent or mixture, Cremophore EL, room temperature, read-out: Drug Solubility", "value": "46000 ± 690", "unit": "µg/mL"}, {"measurement": "solubility at 72 h", "setting": "[1]; organic solvent or mixture, Labrasole, room temperature, read-out: Drug Solubility", "value": 61000, "unit": "µg/mL"}, {"measurement": "solubility at 72 h", "setting": "[1]; organic solvent or mixture, PEG 400, room temperature, read-out: Drug Solubility", "value": 71600, "unit": "µg/mL"}, {"measurement": "solubility at 72 h", "setting": "[1]; organic solvent or mixture, Tween 20, room temperature, read-out: Drug Solubility", "value": "55800 ± 870", "unit": "µg/mL"}, {"measurement": "solubility at 72 h", "setting": "[1]; organic solvent or mixture, Tween 80, room temperature, read-out: Drug Solubility", "value": "49700 ± 410", "unit": "µg/mL"}, {"measurement": "solubility at 72 h", "setting": "[1]; Water, room temperature, read-out: Drug Solubility", "value": 3.97, "unit": "µg/mL"}, {"measurement": "solubility in PEG 400 reported in the scientific literature", "setting": "[2]; PEG 400", "value": 74000, "unit": "µg/mL"}, {"measurement": "ionization constant (pka)", "setting": "[2]", "value": 3.75}, {"measurement": "octanol:water partition coefficient (logP)", "setting": "[2]", "value": "greater than 5"}, {"measurement": "Biopharmaceutics Classification System class", "setting": "[2]", "value": "class IV"}, {"measurement": "Biopharmaceutics Classification System class", "setting": "[2]; listed as etravirine", "value": "class IV"}, {"measurement": "AUC", "setting": "[3]; IV 2.5 mg/kg", "value": "1660 ± 498", "unit": "ng·h/mL"}, {"measurement": "Cmax", "setting": "[3]; IV 2.5 mg/kg (solution in DMSO)", "value": "2360 ± 1120", "unit": "ng/mL"}, {"measurement": "half-life", "setting": "[3]; IV 2.5 mg/kg, read-out: T1/2 (terminal biological half-life) (converted)", "value": "1.14 ± 0.91", "unit": "h"}, {"measurement": "IC50", "setting": "p-gp", "value": 24.2, "unit": "µM"}, {"measurement": "time of median peak concentration", "setting": "[4]; fasted oral administration", "value": "approximately 4.0 hours"}, {"measurement": "terminal elimination half-life in plasma", "setting": "[4]; in vivo", "value": "30 to 40", "unit": "h"}]}]}
